Strand notation (5' to 3'): a small letter for the sugar, then the base; units joined by * are phosphorothioate-linked, units joined directly phosphodiester-linked; [ ] holds rarer units or linkages, { } end groups; capitals alone tell only the bases. [cMOE-R-N] = 6-(R)-CH2-O-CH3 BNA nucleoside (4'-CH(CH2OCH3)-O-2' bridge, R configuration) (N: the base); [6'R-Me-BNA] = 6-(R)-CH3 bicyclic nucleoside (R-constrained ethyl); [5'S-Me-BNA] = 5'-(S)-CH3 4'-CH2-O-2' bicyclic nucleoside; [6'S-cMOE] = 6-(S)-CH2-O-CH3 bicyclic nucleoside; e = 2'-O-(2-methoxyethyl) (MOE); l = locked nucleic acid (LNA); k = constrained ethyl (cEt); v = modified nucleoside v; [5mC] = 5-methylcytosine; d = 2'-deoxy (DNA)
What was measured:
PTEN [1] = assay: 2-14-2 gapped oligomers targeted to PTEN (Example 50), in vivo single injection, liver mRNA; conditions: 72 hrs
PTEN [2] = assay: 2-14-2 gapped oligomers targeted to PTEN (Example 42), in vivo single injection, liver mRNA; conditions: for % UTC: liver mRNA, 72 hrs
RNA complement = assay: Tm by melting against RNA complement (Example 51); conditions: 18 mers, melting against the RNA 20 mer (131566), 14 base complementary region
PTEN [3] = assay: 5′-vinyl and LNA gapped oligomers targeted to PTEN (Example 51), in vivo single injection, liver mRNA; conditions: 64 hrs; for PTEN % UTC: 18 mers, liver mRNA; for ED50: PTEN liver mRNA
[4] = injected once 60 mg/kg (last dose column)
[5] = injected once, second dose column, printed 60 mg/kg

Row | Substance | % UTC (PTEN [1]; injected once 2 μmol/kg) | % UTC (PTEN [1]; injected once 10 μmol/kg) | % UTC (PTEN [2]; injected once 2 μmol/kg) | % UTC (PTEN [2]; injected once 10 μmol/kg) | other results
1 | ISIS NO. 400524: CRURGCTAGCCTCTGGATURUR; 6-(R)-CH2-O-CH3 BNA 2-14-2 gapped oligomer targeted to PTEN ([cMOE-R-C]*[cMOE-R-U]*dG*dC*dT*dA*dG*dC*dC*dT*dC*dT*dG*dG*dA*dT*[cMOE-R-U]*[cMOE-R-U]; antisense) | 23% | 4% | – | – | –
2 | ISIS NO. 400522: CRURGCTAGCCTCTGGATURUR; 6-(R)-CH3 BNA 2-14-2 gapped oligomer targeted to PTEN (CUGCTAGCCTCTGGATUU; sugars from the 5' end [6'R-Me-BNA]2 d14 [6'R-Me-BNA]2, backbone and methylation of C not given here) | 18% | 4% | – | – | –
3 | ISIS NO. 400521: CSUSGCTAGCCTCTGGATUSUS; 5′-(S)-CH3 BNA 2-14-2 gapped oligomer targeted to PTEN (CUGCTAGCCTCTGGATUU; sugars from the 5' end [5'S-Me-BNA]2 d14 [5'S-Me-BNA]2, backbone and methylation of C not given here) | – | – | 21.4% | 3.8% | efficacy, comparison in words (PTEN [2]; high dose group (10 micromole/Kg)): essentially equally efficacious as 394425
4 | ISIS NO. 400523: CSUSGCTAGCCTCTGGATUSUS; 6-(S)-CH3 BNA 2-14-2 gapped oligomer targeted to PTEN (CUGCTAGCCTCTGGATUU; sugars from the 5' end k2 d14 k2, backbone and methylation of C not given here) | 17% | 4% | – | – | –
5 | ISIS NO. 400525: CSUSGCTAGCCTCTGGATUSUS; 6-(S)-CH2-O-CH3 BNA 2-14-2 gapped oligomer targeted to PTEN (CUGCTAGCCTCTGGATUU; sugars from the 5' end [6'S-cMOE]2 d14 [6'S-cMOE]2, backbone and methylation of C not given here) | 21% | 3% | – | – | –
6 | ISIS NO. 394420: MeCeTeGCTAGCCTCTGGATTeTe; 2′-O-MOE 2-14-2 gapped oligomer targeted to PTEN (CTGCTAGCCTCTGGATTT; sugars from the 5' end e2 d14 e2, [5mC] at 1, backbone not given here) [reference compound] | 79% | 26% | 79% | 26% | –
7 | ISIS NO. 411027: CvUvGCTAGCCTCTGGATUvUv; 18 mer gapped oligomer targeted to PTEN, subscript v nucleoside illustrated in a drawing (CUGCTAGCCTCTGGATUU; sugars from the 5' end v2 d14 v2, backbone and methylation of C not given here; further chemistry not fully specified) | – | – | – | – | Tm (RNA complement): 59.9 °C; PTEN % UTC (PTEN [3]; injected once 1.9 mg/kg): 89%; PTEN % UTC (PTEN [3]; injected once 19 mg/kg): 24%; PTEN % UTC (PTEN [3]; [4]): 7%; PTEN % UTC (PTEN [3]; [5]): 61%; ED50 (PTEN [3]; injected once): 7.4 mg/kg
8 | ISIS NO. 394425: MeClTlGCTAGCCTCTGGATTlTl; 4′-CH2-O-2′ BNA 2-14-2 gapped oligomer targeted to PTEN (CTGCTAGCCTCTGGATTT; sugars from the 5' end l2 d14 l2, [5mC] at 1, backbone not given here) [reference compound] | – | – | 11% | 2.1% | Tm (RNA complement): 61.6 °C; PTEN % UTC (PTEN [3]; injected once 1.9 mg/kg): 100%; PTEN % UTC (PTEN [3]; injected once 19 mg/kg): 8%; PTEN % UTC (PTEN [3]; [4]): 4%; PTEN % UTC (PTEN [3]; [5]): 35%; ED50 (PTEN [3]; injected once): 4.4 mg/kg

— patent US8088746B2, “Bis-modified bicyclic nucleic acid analogs” (Isis Pharmaceuticals, Inc., priority 2006, dated 2012)
